Assay results: article PMC5501184 (Journal of medicinal chemistry, 2017)
Read-outs that look alike come from different tables or passages of the source.

Legend:
mDAT = mDAT (Mus musculus, UniProt Q61327); assay: [^125I]23 binding to mDAT expressed in HEK-293 cells
hDAT [1] = target: T1, hDAT (Homo sapiens, UniProt Q01959); conditions: read-out: Kd of [^125I]23 at hDAT; no modulator; cited from earlier work
[2] = metabolomic study; cited from earlier work
[3] = cited from earlier work
mouse = conditions: cited from earlier work
hDAT [4] = target: T1, hDAT; conditions: 10 μM; [^3H]24 binding, PDSP; ref Janowsky et al.[3]; cited from earlier work
[5] = system: cytochrome P450 (5 isozymes); conditions: cited from earlier work

T1 sequence (Q01959 whole entry): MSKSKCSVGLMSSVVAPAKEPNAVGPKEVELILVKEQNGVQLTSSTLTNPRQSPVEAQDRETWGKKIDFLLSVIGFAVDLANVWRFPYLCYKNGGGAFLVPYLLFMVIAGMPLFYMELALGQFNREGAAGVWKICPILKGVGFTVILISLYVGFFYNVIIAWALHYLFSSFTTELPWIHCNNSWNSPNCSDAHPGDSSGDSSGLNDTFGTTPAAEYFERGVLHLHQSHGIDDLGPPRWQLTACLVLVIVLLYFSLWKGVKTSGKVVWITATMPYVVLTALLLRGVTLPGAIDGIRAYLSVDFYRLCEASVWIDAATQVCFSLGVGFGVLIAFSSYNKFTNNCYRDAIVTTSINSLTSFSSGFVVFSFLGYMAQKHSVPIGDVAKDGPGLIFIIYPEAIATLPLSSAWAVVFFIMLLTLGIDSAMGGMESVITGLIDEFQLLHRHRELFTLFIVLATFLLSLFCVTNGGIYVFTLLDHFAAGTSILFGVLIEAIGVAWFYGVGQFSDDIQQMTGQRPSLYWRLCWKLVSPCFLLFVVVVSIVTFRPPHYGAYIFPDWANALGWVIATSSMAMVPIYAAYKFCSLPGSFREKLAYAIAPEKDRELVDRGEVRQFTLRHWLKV
Chain of mDAT (Q61327 whole entry): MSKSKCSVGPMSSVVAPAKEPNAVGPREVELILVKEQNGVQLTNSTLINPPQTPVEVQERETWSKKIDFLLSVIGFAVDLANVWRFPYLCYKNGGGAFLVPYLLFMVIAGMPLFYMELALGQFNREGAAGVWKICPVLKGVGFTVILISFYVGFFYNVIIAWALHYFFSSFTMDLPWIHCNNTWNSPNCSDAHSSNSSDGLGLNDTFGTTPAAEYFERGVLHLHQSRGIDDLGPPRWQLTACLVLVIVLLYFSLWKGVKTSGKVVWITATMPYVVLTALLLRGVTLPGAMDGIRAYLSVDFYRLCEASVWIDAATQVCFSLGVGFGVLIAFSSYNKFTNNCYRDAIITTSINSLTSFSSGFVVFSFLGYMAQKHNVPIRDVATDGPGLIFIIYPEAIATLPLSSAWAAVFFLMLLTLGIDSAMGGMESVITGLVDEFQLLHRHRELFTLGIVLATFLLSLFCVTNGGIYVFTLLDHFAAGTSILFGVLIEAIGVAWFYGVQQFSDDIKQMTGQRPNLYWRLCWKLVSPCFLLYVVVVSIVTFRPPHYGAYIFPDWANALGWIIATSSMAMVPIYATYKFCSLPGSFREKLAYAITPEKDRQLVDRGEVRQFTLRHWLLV

Compound | Kd (mDAT) | Kd (hDAT [1]) | tolerability in vivo [2] | stability in the presence of liver microsomes, plasma and simulated body fluids [3] | locomotor activity (mouse; 10 mg/kg) | locomotor activity (mouse; 30 mg/kg) | hDAT Binding Inhibition, % of control (hDAT [4]) | inhibition of cytochrome P450 (5 isozymes) [5]
COC(=O)[C@H]1[C@@H](c2ccc(I)cc2)CC2CC[C@H]1N2C [compound 23, methyl (1R,2S,3S)-3-(4-iodophenyl)-8-methyl-8-azabicyclo[3.2.1]octane-2-carboxylate] | 3.9 nM | 1.3 nM | – | – | – | – | – | –
CNC(=O)[C@@]12C[C@@H]1[C@@H](n1cnc3c(NC)nc(C#Cc4ccc(Cl)s4)nc31)[C@H](O)[C@@H]2O [compound 1, (1S,2R,3S,4R,5S)-4-(2-((5-chlorothiophen-2-yl)ethynyl)-6-(methylamino)-9H-purin-9-yl)-2,3-dihydroxy-N-methylbicyclo[3.1.0]hexane-1-carboxamide] | – | – | well tolerated | stable | did not significantly stimulate locomotor activity | reduced locomotor activity | NE (no effect) | do not inhibit
